Test results as given in paper PMC6017736, “Indole-3-Carbonitriles as DYRK1A Inhibitors by Fragment-Based Drug Design” (Molecules : A Journal of Synthetic Chemistry and Natural …, 2018).

Columns and labels:
CLK2 = CLK2 (Mus musculus, UniProt O35491); test: Protein kinase assay ([γ-33P]-ATP, RS peptide substrate), CLK2; format: biochemical; settings: for remaining activity at 10 µM: 10 µM compound, compared to controls, read-out: Residual Activity at 10 µM CLK2; for IC50: 15 µM ATP
Experimental: (§1) DYRK1A, 1B, 2, 3 (human, recombinant, expressed in E. coli as GST fusion proteins) and CLK1, 2, 3, and 4 (mouse, recombinant, expressed in E. coli as GST fusion proteins) were assayed as described for GSK-3 in Buffer A (supplemented extemporaneously with 0.15 mg BSA/mL + 1 mM DTT) with 1 µg of RS peptide ([…]) as a substrate.

DYRK1B = DYRK1B (Homo sapiens, UniProt Q9Y463); test: Protein kinase assay ([γ-33P]-ATP, RS peptide substrate), DYRK1B; format: biochemical; settings: for remaining activity at 10 µM: 10 µM compound, compared to controls, read-out: Residual Activity at 10 µM DYRK 1B; for IC50: 15 µM ATP, read-out: IC50 DYRK 1B
Chain of DYRK1B (Q9Y463 whole entry): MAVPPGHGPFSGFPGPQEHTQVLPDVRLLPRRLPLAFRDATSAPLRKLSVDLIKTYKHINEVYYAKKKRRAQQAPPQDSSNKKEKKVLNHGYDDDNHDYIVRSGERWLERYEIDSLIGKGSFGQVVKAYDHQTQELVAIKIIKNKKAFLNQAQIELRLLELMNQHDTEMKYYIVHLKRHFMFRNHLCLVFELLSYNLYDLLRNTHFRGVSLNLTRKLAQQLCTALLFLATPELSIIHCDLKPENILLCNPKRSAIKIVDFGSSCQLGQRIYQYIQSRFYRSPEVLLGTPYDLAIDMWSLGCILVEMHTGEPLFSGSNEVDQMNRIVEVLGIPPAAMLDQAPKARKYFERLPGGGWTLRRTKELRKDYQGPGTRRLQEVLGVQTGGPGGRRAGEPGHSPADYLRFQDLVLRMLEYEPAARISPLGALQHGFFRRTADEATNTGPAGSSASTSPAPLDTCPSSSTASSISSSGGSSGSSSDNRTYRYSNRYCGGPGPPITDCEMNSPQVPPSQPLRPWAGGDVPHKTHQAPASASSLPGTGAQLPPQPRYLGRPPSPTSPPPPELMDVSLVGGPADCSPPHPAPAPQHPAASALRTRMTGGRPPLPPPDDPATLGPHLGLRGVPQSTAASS
Experimental: as §1

DYRK1A [1] = target: T1, DYRK1A (Homo sapiens, UniProt Q13627); test: Protein kinase assay ([γ-33P]-ATP, RS peptide substrate), DYRK1A; format: biochemical; settings: for remaining activity at 10 µM: 10 µM compound, compared to controls, read-out: Residual Activity at 10 µM DYRK 1A; for IC50: 15 µM ATP, read-out: IC50 DYRK 1A
DYRK3 = target: T2, DYRK3 (Homo sapiens, UniProt O43781); test: Protein kinase assay ([γ-33P]-ATP, RS peptide substrate), DYRK3; format: biochemical; settings: for remaining activity at 10 µM: 10 µM compound, compared to controls, read-out: Residual Activity at 10 µM DYRK3; for IC50: 15 µM ATP
T2 sequence (O43781 1-588): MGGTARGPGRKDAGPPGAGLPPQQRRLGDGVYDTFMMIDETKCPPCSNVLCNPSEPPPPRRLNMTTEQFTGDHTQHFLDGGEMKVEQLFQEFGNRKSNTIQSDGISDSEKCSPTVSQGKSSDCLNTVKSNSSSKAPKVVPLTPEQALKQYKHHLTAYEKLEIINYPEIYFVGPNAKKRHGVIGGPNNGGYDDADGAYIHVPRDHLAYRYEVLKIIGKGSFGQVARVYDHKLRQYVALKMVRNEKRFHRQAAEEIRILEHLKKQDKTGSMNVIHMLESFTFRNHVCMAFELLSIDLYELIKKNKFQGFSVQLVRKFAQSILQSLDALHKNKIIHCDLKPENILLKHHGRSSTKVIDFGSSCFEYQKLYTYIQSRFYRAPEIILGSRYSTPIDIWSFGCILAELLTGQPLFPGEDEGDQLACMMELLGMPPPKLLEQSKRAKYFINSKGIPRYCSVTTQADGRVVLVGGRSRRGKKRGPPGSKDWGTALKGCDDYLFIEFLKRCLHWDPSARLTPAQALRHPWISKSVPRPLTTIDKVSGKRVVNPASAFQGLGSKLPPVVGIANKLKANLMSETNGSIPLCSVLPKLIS
Experimental: as §1

CLK3 = CLK3 (Mus musculus, UniProt O35492); test: Protein kinase assay ([γ-33P]-ATP, RS peptide substrate), CLK3; format: biochemical; settings: for remaining activity at 10 µM: 10 µM compound, compared to controls, read-out: Residual Activity at 10 µM CLK3; for IC50: 15 µM ATP
Chain of CLK3 (O35492 whole entry): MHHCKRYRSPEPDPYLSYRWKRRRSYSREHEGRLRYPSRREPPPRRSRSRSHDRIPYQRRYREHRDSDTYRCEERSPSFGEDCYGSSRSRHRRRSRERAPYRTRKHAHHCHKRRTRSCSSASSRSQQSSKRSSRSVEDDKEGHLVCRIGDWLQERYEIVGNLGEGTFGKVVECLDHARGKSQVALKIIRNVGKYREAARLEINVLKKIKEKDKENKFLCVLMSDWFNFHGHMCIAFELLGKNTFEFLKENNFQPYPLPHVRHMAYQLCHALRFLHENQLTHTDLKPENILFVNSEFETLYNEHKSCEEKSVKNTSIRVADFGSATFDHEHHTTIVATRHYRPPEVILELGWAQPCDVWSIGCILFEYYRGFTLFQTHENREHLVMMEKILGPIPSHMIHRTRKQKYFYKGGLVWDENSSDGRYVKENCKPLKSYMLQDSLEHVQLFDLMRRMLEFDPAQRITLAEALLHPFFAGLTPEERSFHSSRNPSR
Experimental: as §1

DYRK2 = target: T3, DYRK2 (Homo sapiens, UniProt Q92630); test: Protein kinase assay ([γ-33P]-ATP, RS peptide substrate), DYRK2; format: biochemical; settings: for remaining activity at 10 µM: 10 µM compound, compared to controls, read-out: Residual Activity at 10 µM DYRK2; for IC50: 15 µM ATP
T3 sequence (Q92630 1-601): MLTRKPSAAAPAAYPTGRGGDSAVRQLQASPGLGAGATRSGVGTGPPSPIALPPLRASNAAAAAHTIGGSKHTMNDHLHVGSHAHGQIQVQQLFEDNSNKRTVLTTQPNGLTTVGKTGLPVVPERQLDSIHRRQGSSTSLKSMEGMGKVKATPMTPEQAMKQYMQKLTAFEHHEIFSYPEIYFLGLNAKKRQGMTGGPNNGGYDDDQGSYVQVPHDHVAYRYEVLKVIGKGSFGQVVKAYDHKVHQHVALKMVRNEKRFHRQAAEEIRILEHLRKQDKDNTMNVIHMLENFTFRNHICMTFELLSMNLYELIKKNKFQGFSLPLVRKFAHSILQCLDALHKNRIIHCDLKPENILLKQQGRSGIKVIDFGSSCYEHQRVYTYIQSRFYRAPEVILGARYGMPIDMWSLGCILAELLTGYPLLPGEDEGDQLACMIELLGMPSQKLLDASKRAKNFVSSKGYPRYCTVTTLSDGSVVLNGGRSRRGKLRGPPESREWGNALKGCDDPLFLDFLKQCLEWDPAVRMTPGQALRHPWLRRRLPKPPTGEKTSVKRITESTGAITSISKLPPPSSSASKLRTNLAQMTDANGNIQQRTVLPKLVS
Experimental: as §1

CLK4 = CLK4 (Mus musculus, UniProt O35493); test: Protein kinase assay ([γ-33P]-ATP, RS peptide substrate), CLK4; format: biochemical; settings: for remaining activity at 10 µM: 10 µM compound, compared to controls, read-out: Residual Activity at 10 µM CLK4; for IC50: 15 µM ATP
Chain of CLK4 (O35493 whole entry): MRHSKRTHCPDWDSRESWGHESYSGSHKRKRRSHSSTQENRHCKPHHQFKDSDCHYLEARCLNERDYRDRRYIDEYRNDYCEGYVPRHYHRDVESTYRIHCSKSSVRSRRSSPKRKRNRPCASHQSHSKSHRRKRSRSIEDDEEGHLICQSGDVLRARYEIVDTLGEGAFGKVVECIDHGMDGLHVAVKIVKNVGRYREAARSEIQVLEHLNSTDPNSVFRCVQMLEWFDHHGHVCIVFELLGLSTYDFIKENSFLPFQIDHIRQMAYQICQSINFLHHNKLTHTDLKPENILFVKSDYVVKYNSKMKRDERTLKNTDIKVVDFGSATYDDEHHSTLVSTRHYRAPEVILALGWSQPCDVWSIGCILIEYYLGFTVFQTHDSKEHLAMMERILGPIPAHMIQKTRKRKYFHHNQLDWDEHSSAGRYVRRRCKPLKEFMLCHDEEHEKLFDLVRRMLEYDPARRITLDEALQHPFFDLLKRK
Experimental: as §1

CLK1 = CLK1 (Mus musculus, UniProt P22518); test: Protein kinase assay ([γ-33P]-ATP, RS peptide substrate), CLK1; format: biochemical; settings: for remaining activity at 10 µM: 10 µM compound, compared to controls, read-out: Residual Activity at 10 µM CLK1; for IC50: 15 µM ATP
Chain of CLK1 (P22518 whole entry): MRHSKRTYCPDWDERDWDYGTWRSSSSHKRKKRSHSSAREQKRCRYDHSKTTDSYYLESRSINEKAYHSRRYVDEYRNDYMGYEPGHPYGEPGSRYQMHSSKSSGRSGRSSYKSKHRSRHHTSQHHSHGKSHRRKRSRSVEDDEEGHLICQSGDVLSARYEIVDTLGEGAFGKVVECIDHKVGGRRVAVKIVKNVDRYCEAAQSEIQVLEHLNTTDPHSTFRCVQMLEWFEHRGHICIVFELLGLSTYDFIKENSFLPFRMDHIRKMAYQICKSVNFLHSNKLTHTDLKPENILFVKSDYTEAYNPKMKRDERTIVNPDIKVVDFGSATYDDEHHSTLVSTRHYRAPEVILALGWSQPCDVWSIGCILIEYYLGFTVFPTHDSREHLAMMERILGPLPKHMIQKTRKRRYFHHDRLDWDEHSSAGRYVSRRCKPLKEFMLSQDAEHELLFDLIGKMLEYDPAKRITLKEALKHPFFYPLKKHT
Experimental: as §1

DYRK1A [2] = target: T1, DYRK1A; test: Ligand-lipophilicity efficiency (pIC50 minus calculated logP); settings: Table S2
Experimental: All new compounds were evaluated based on their physicochemical properties regarding Lipinski’s rule of five and the ligand-lipophilicity efficiency (LLE). Both concepts are used to assess the druglikeness of drug development candidates. […] LLE is calculated from pIC50 minus calculated logP [46].

GSK-3 = test: Protein kinase assay ([γ-33P]-ATP, GS-1 substrate), GSK-3; settings: 10 µM compound, compared to controls

Chain of CLK2 (O35491 whole entry, the tested form may be a part): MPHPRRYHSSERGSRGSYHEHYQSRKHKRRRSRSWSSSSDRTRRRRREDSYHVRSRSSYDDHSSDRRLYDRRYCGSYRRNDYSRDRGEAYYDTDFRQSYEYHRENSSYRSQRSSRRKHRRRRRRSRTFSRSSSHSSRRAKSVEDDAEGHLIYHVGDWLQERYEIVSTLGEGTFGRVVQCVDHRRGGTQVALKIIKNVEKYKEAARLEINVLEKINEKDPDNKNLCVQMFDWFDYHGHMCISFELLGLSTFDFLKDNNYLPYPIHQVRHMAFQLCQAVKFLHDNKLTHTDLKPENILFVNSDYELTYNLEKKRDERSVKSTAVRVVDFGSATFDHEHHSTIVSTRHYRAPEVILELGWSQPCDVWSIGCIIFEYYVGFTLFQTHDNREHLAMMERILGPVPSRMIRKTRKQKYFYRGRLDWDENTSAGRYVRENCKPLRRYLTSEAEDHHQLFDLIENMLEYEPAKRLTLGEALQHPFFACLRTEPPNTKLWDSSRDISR

| Compound | remaining activity at 10 µM (CLK2) [%] | remaining activity at 10 µM (DYRK1B) [%] | remaining activity at 10 µM (DYRK1A [1]) [%] | remaining activity at 10 µM (DYRK3) [%] | remaining activity at 10 µM (CLK3) [%] | remaining activity at 10 µM (DYRK2) [%] | remaining activity at 10 µM (CLK4) [%] | remaining activity at 10 µM (CLK1) [%] | IC50 (CLK2) [µM] | IC50 (DYRK1B) [nM] | LLE (DYRK1A [2]) | IC50 (DYRK1A [1]) [nM] | IC50 (DYRK3) [µM] | IC50 (CLK3) [µM] | IC50 (DYRK2) [µM] | IC50 (CLK4) [nM] | IC50 (CLK1) [nM] | Residual Activity at 10 µM GSK3 (GSK-3) [%] |
| --- | --- | --- | --- | --- | --- | --- | --- | --- | --- | --- | --- | --- | --- | --- | --- | --- | --- | --- |
| Cc1cccc2c(C#N)c(-c3ccccc3)[nH]c12 [Compound 6e, 7-Methyl-2-phenyl-1H-indole-3-carbonitrile] | 75 | 74 | 35 | 105 | 124 | 75 | 43 | 56 | – | – | – | – | – | – | – | – | – | – |
| N#Cc1c(CCC2OCCCO2)[nH]c2c(Cl)cccc12 [Compound 6l, 2-(2-(1,3-Dioxan-2-yl)ethyl)-7-chloro-1H-indole-3-carbonitrile] | – | – | – | – | – | – | – | – | > 10 | > 10000 | 2.57 | 3900 | > 10 | > 10 | > 10 | 4000 | 4900 | – |
| C=CCc1[nH]c2c(Cl)cccc2c1C#N [Compound 6k, 2-Allyl-7-chloro-1H-indole-3-carbonitrile] | – | – | – | – | – | – | – | – | 1.3 | 1300 | 2.77 | 690 | > 10 | > 10 | > 10 | 533 | 533 | – |
| COc1ccc(-c2[nH]c3c(I)cccc3c2C#N)cc1 [Compound 6n, 7-Iodo-2-(4-methoxyphenyl)-1H-indole-3-carbonitrile] | – | – | – | – | – | – | – | – | > 10 | > 10000 | 2.36 | 233 | > 10 | > 10 | > 10 | 220 | 333 | – |
| COc1cccc(-c2[nH]c3c(I)cccc3c2C#N)c1 [Compound 6o, 7-Iodo-2-(3-methoxyphenyl)-1H-indole-3-carbonitrile] | – | – | – | – | – | – | – | – | 3.3 | 633 | 2.41 | 210 | > 10 | > 10 | > 10 | 290 | 633 | – |
| N#Cc1c(-c2ccc(Cl)cc2)[nH]c2c(Cl)cccc12 [Compound 6i, 7-Chloro-2-(4-chlorophenyl)-1H-indole-3-carbonitrile] | – | – | 60 | – | – | – | – | 68 | – | – | – | – | – | – | – | – | – | 112 |

Continued, in another order:

| remaining activity at 10 µM (CLK2) [%] | remaining activity at 10 µM (DYRK1B) [%] | remaining activity at 10 µM (DYRK1A [1]) [%] | remaining activity at 10 µM (DYRK3) [%] | remaining activity at 10 µM (CLK3) [%] | remaining activity at 10 µM (DYRK2) [%] | remaining activity at 10 µM (CLK4) [%] | remaining activity at 10 µM (CLK1) [%] | IC50 (CLK2) [µM] | IC50 (DYRK1B) [nM] | LLE (DYRK1A [2]) | IC50 (DYRK1A [1]) [nM] | IC50 (DYRK3) [µM] | IC50 (CLK3) [µM] | IC50 (DYRK2) [µM] | IC50 (CLK4) [nM] | IC50 (CLK1) [nM] | Compound | Residual Activity at 10 µM GSK3 (GSK-3) [%] |
| --- | --- | --- | --- | --- | --- | --- | --- | --- | --- | --- | --- | --- | --- | --- | --- | --- | --- | --- |
| 95 | 78 | 97 | 95 | 127 | 144 | 84 | 102 | – | – | – | – | – | – | – | – | – | N#Cc1cn(Cc2ccccc2)c2c(Cl)cccc12 [Compound 13a, 1-Benzyl-7-chloro-1H-indole-3-carbonitrile] | – |
| 70 | 47 | 32 | 95 | 97 | 117 | 30 | 56 | – | – | – | – | – | – | – | – | – | Cn1cc(C#N)c2cccc(Cl)c21 [Compound 13c, 7-Chloro-1-methyl-1H-indole-3-carbonitrile] | – |
